Literature values in patent US20240082224A1, “METHODS OF TREATING HEMATOLOGICAL MALIGNANCY USING NANOPARTICLE MTOR INHIBITOR COMBINATION THERAPY” (Abraxis BioScience, LLC, priority 2015, published 2024).

How the values were obtained:
[1] = in vivo
ABCG2 = molecular target: T1, ABCG2 (Homo sapiens, UniProt Q9UNQ0)
T1 sequence (Q9UNQ0 1-655): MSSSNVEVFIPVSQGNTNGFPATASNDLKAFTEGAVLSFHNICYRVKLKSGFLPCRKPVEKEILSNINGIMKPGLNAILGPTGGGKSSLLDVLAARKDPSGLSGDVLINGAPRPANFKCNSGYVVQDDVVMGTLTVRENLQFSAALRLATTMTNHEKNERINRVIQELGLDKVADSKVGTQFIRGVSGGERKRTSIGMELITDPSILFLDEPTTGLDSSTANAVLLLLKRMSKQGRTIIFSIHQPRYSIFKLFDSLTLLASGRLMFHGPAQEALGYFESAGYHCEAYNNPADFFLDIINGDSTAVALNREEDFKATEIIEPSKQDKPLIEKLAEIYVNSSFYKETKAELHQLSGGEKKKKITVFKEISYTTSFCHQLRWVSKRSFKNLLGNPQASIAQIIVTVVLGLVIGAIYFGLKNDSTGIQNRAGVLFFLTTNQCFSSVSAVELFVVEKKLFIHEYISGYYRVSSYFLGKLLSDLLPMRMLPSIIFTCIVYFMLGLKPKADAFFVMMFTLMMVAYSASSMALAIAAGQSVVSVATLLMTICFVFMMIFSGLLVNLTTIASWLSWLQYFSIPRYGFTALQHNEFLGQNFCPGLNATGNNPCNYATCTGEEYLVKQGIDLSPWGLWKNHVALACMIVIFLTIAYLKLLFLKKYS

ABCB1 = ABCB1 (Homo sapiens, UniProt P08183)
ABCB1, sequence (P08183 whole entry, species assumed): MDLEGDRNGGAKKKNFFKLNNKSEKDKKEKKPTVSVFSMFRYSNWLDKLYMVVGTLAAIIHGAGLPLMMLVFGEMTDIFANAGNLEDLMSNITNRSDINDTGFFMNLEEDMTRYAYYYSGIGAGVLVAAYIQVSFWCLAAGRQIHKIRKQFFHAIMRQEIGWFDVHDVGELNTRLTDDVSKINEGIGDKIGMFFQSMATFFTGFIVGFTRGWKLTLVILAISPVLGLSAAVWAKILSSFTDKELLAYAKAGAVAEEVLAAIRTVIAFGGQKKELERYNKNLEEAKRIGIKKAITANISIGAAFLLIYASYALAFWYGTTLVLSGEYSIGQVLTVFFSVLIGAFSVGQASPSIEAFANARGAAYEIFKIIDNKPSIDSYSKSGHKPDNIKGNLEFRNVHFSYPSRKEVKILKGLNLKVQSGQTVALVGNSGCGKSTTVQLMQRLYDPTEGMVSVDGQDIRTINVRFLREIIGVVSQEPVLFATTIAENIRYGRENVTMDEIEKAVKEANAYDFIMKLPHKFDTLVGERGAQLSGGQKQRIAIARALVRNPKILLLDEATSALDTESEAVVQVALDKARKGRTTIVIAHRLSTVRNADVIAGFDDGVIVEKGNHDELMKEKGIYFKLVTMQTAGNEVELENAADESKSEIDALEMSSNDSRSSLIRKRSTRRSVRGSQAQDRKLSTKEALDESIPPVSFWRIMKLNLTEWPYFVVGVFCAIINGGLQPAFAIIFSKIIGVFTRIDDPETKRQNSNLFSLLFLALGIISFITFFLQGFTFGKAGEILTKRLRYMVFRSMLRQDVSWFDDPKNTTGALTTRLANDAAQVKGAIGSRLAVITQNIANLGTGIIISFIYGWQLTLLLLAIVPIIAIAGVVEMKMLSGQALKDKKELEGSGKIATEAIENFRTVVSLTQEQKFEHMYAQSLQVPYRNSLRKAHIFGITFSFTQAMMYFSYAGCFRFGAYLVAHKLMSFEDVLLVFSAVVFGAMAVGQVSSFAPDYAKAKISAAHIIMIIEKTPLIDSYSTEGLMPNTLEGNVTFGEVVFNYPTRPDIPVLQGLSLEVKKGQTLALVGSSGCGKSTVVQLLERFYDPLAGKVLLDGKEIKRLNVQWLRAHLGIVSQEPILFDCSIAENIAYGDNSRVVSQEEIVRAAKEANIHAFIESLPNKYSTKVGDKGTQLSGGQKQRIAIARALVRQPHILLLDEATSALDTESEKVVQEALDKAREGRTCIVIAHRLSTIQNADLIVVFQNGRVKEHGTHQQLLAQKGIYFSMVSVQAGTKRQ

Row | SMILES | CML patients who respond (CML patients; imatinib) [%] | patients progressing to advanced disease (CML patients; within 5 years) | brain penetration [1] | affinity for ABCG2 (ABCG2) | affinity for ABCB1 (ABCB1)
1 | Cc1ccc(NC(=O)c2ccc(CN3CCN(C)CC3)cc2)cc1Nc1nccc(-c2cccnc2)n1 [imatinib] | 80 | under 3% | – | – | –
2 | COc1ccc(COc2cc3oc(=O)c4cc(C(C)O)ccc4c3cc2OC)cc1 (centres unmarked) [Palomid 529] | – | – | good brain penetration | lacks affinity | lacks affinity
